The values that follow come from US7915393B2 (Corixa Corporation, priority 2001, dated 2011).

Series [1] has as its system WT1 specific CD8+ T-cell clone. As to the kind of experiment: IFN-γ ELISPOT recognition by human WT1 specific CD8+ T-cell clone (whole gene priming). It counts as cell-based. The settings on record: HLA-A2 restricted clone.
Series [2] can be described thus: Clinical chemistry and hematology analysis, WT1 dose titration study. It counts as in vivo. The settings on record: mice immunized with WT1 protein. An excerpt:
Special emphasis was put on evaluation of potential hematopoietic toxicity.

The subject of series [3] is targets incubated with WT1 peptides (EL-4) and WT1 positive tumor cells (TRAMP-C, BLK-SV40). As to the kind of experiment: CTL from mice immunized with WT1 peptides, chromium release assay. It counts as in vivo, B6 mice. The settings on record: for generation of peptide specific CTL following immunization: spleen cells stimulated in vitro with peptide; for generation of peptide specific CTL following immunization / lysis of WT1 positive tumor cells by peptide specific CTL: chromium release; for lysis of WT1 positive tumor cells by peptide specific CTL: WT1 positive tumor cell lines (TRAMP-C, BLK-SV40). Here is the method:
CTL were evaluated with a standard chromium release assay (Chen et al., Cancer Res. 54:1065-1070, 1994). 10^6 target cells were incubated at 37° C. with 150 μCi of sodium ^51Cr for 90 minutes, in the presence or absence of specific peptides. Cells were washed three times and resuspended in RPMI with 5% fetal bovine serum. For the assay, 10^4 51Cr-labeled target cells were incubated with different concentrations of effector cells in a final volume of 200 μl in U-bottomed 96-well plates. Supernatants were removed after 4 to 7 hours at 37° C., and the percentage specific lysis was determined by the formula: % specific lysis=100×(experimental release−spontaneous release)/(maximum release−spontaneous release).
P117-139, a peptide with motifs appropriate for binding to class I and class II MHC, was identified as described above using TSITES and BIMAS HLA peptide binding prediction analyses. Mice were immunized as described in Example 3. […] CTL were evaluated with a standard chromium release assay.

Series [4] has as its system DC2.4 A2/Kb cells pulsed with peptides. The experiment in a line: Identification of CTL epitope: chromium release with peptide pulsed DC2.4 A2/Kb cells. In kind it is in vivo. The settings on record: HLA-A2/Kb transgenic mice.
For series [5], the system named is T cells of immunized B6 mice. As to the kind of experiment: Proliferative T cell responses of immunized mice, thymidine incorporation assay. The settings on record: for stimulation index (SI), proliferative T cell response: mice immunized with WT1 peptides, thymidine incorporation (FIGS. 5A-5C). It counts as in vivo. The protocol: Peptides were dissolved in 1 ml sterile water for injection, and B6 mice were immunized 3 times at time intervals of three weeks. Adjuvants used were CFA/IFA, GM-CSF, and MONTANIDE®. […] In particular, lymphocytes were cultured in 96-well plates at 2×10^5 cells per well with 4×10^5 irradiated (3000 rads) syngeneic spleen cells and the designated peptide.

The next series concerns human cells. As to the kind of experiment: Cellular cytotoxicity of WT1-ubiquitin fusion expressed in human cells. In kind it is cell-based. The settings on record: compared with native WT1. An excerpt:
The human ubiquitin open reading frame (SEQ ID NO:384) was mutated such that the nucleotides encoding the last amino acid encode an alanine instead of a glycine. […] The G->A mutation prevents co-translational cleavage of the […] protein by the proteases that normally process poly-ubiquitin during translation. The DNA and predicted amino acid sequence for the resulting construct are set forth in SEQ ID NOs:385 and 410, respectively. […] The resulting protein is predicted to be targeted to the proteosome by virtue of the added ubiquitin molecule.

For another series, the system named is CD4 cells of splenocytes. The experiment in a line: Intracellular interferon-gamma staining of CD4 cells (FACS) after immunization with WT-1 protein constructs. It counts as in vivo. The settings on record: C57BL/6 mice. The protocol: Groups of four C57BL/6 mice were immunized subcutaneously with 20 μg WT-1 proteins: WT-1-F or WT-1 full length (FL), with Ra12, HIS or TAT fusions. Immunizations were performed at weeks 0, 3 and 9, and spleens were harvested at week 11. Splenocytes were then stimulated in vitro for 6 hours with medium alone, with a 15-mer peptide “p32” ([…], amino acids 125-139 of WT-1; found within the p117-139 peptide set forth in SEQ ID NO:2), with the DC2.4-WT-1/LAMP cell line, or with rRa12. CD4 cells were then stained for intracellular interferon-gamma and quantified by FACS analysis. A portion of these splenocytes were then stimulated in vitro for 8 days, after which CD4+ IFN+ cells were enumerated. After the 6 hour stimulation with p32, 0.33% of CD4-positive cells were positive for intracellular IFN-gamma staining in mice immunized with the truncated N-terminal construct rWT1-F-TAT. By contrast, only 0.10% of CD4-positive cells stained positive for intracellular IFN-gamma in mice immunized with rWT1-FL-TAT. […] By contrast, 0.24% of CD4-positive cells from mice immunized with the full-length WT1-TAT construct stained positive for intracellular IFN-gamma.

Series [6] relates to WT1-specific CD8+ T cell clone and T cell line. As to the kind of experiment: HLA-A2 peptide-MHC tetramer staining of WT1 specific T cells (flow cytometry). In kind it is cell-based, human.
The test system of series [7] is mouse B6 class I antigens (D^b or K^b molecules on the surface of RMA-S cells). The experiment in a line: Peptide binding to C57Bl/6 murine class I MHC using RMA-S cells (flow cytometry). In kind it is cell-based. The settings on record: 9-mer peptides within p117-139.
Procedure: In brief, RMA-S cells were cultured for 7 hours at 26° C. in complete medium supplemented with 1% FCS. A total of 10^6 RMA-S cells were added into each well of a 24-well plate and incubated either alone or with the designated peptide (25 ug/ml) for 16 hours at 26° C. and additional 3 hours at 37° C. in complete medium. Cells were then washed three times and stained with fluorescein isothiocyanate-conjugated anti D^b or anti-K^b antibody (PharMingen, San Diego, Calif.). Labeled cells were washed twice, resuspended and fixed in 500 ul of PBS with 1% paraformaldehyde and analyzed for fluorescence intensity in a flow cytometer (Becton-Dickinson FACSCALIBUR™). The percentage of increase of D^b or K^b molecules on the surface of the RMA-S cells was measured by increased mean fluorescent intensity of cells incubated with peptide compared with that of cells incubated in medium alone.

Marks after values point to notes of the source that are not given here.

Turning to VLDFAPPGASAYGSL [peptide 10], the “recognition by WT1 specific CD8+ T-cell clone (ELISPOT)” value (“recognition” for short) in series [1] was “recognized”.
For the substance “WT1 protein: WT1 protein used for immunization in a multiple dose titration in mice”, the “blood cell counts and blood chemistry (BUN, creatinine, bilirubin, albumin, globulin)” value in series [2] was “within the normal range”. Also, under “MPL-SE as adjuvant, doses 25 μg, 100 μg to 1000 μg WT1 protein, female C57/B6 mice (FIG. 19)”, the WT1-specific antibody response result is reported as “strong WT1-specific antibody response”. Besides, the “cellular T-cell responses” value (MPL-SE as adjuvant, doses 25 μg, 100 μg to 1000 μg WT1 protein, female C57/B6 mice (FIG. 20)) is “cellular T-cell responses”. Moreover, where the note is “mice immunized with WT1 protein”, the “myeloid/erythroid ratio in sternum and femur marrow” value is given as “normal”. For the same substance, the “systemic histopathological or toxicological effects of immunization” value (mice, multiple dose titration) is reported as “No systemic histopathological or toxicological effects”.
“p136-144: 9-mer class I MHC binding peptide; human or mouse form not stated at this place (SCLESQPAI; UniProt P19544 136-144, looked up, fragment)”: in [3], the “generation of peptide specific CTL following immunization” value (shortened to “generation”) was “CTL were generated”.
Consider ALLPAVPSL, for which, in series [3], the “generation” value is “peptide specific CTL lines were generated”. Further, the “WT1 immunized animals with CTL responses to the peptide” value in series [4] is 4 of 5.
Regarding RDLNALLPAVPSLGGGG [p6-22], in series [5], the “stimulation index (SI), proliferative T cell response” value was 2.3.
With VRRVSGVAPTLVRS [Peptide P299-313], the “stimulation index (SI), proliferative T cell response” value in series [5] came out at 3.3.
GATLKGVAAGSSSSVKWTE [p244-262]: in series [5] (Vaccine A immunized mice, bulk lines, peptide 25 ug/ml, 96 hr (FIG. 6A)), the “stimulation indices (SI), proliferative T cell response to the immunizing peptides” value is given as “No proliferative response”.
With VLDFAPPGAS, the “recognition” value in series [1] is recorded as “specifically recognized”.
For QWAPVLDFAPPGASA [peptide 9], the “recognition” value in series [1] is reported as “recognized”.
For “WT1-Ubiquitin fusion: mutated (G->A) human ubiquitin fused upstream of a splice variant of human WT1”, the “cellular cytotoxicity when expressed in human cells” value with human cells is listed as “decreased cellular cytotoxicity”.
“rWT1-FL-TAT: full-length WT1 as TAT fusion”: in the series with CD4 cells of splenocytes (20 μg s.c. weeks 0, 3 and 9, 6 hour stimulation with p32), the “CD4-positive cells positive for intracellular IFN-gamma staining” value was found to be 0.10%. The “CD4+ cells with IFN-gamma staining” value with CD4 cells of splenocytes (20 μg s.c., after the 8 day stimulation) worked out at 0.24%.
As to “WT1 p39-47: irrelevant HLA-A2 peptide used as tetramer control (DFAPPGASA; UniProt P19544 39-47, looked up, fragment)”, the “staining of the WT1-specific CD8+ T cell clone by HLA-A2 tetramers incubated with an excess of the peptide” value (from here on “staining … of the peptide”) in [6] is “did not stain the CD8+ T cell clone”.
Consider CMTWNQMNL, for which the “lysis of WT1 positive tumor cells by peptide specific CTL” value in series [3] is “failed to lyse cell lines that expressed WT1 proteins”. In series [3] (listed as p235-243), the “generation” value is on record as “peptide specific CTL lines were generated”.
As to LDFAPPGAS, in series [6], the “staining … of the peptide” value is “did not stain the CD8+ T cell clone”.
As to NLYQMTSQL, the “generation” value in [3] is reported as “not”.
As for NAPYLPSCL, in [7], the “binding to H-2^b class I molecules” value is given as “bind to H-2^b class I molecules”. Further, the “lysis of targets incubated with 9-mer peptide by CTL generated by immunization with p117-139” value in series [3] (EL-4 pulsed with peptide, E:T 25:1 (FIG. 13A)) was “lysed targets”. Besides, in [3] (FIGS. 13B and 13C), the “peptide specific lysis after restimulation of the p117-139 specific CTL line with the 9-mer” value was “demonstrated peptide specific lysis”. Also, the “lysis of WT1 positive tumor cells by peptide specific CTL” value in series [3] was “showed lysis of a WT1 positive tumor cell line”.
On to SCLESQPAI, for which, in series [3], the “generation” value is “peptide specific CTL lines were generated”.
As for VLDFAPPGA, the “recognition” value in [1] is listed as “specifically recognized”. Also, in series [6], the “staining … of the peptide” value was “specifically stained the CD8+ T cell clone”.
